Laboratory results from BindingDB's records for doi:10.1016/j.bmc.2007.10.027 (Research Triangle Institute, 2008).

Molecular target: Neuronal acetylcholine receptor subunit alpha-4 (Rattus norvegicus, UniProt P09483)
Sequence (P09483 whole entry): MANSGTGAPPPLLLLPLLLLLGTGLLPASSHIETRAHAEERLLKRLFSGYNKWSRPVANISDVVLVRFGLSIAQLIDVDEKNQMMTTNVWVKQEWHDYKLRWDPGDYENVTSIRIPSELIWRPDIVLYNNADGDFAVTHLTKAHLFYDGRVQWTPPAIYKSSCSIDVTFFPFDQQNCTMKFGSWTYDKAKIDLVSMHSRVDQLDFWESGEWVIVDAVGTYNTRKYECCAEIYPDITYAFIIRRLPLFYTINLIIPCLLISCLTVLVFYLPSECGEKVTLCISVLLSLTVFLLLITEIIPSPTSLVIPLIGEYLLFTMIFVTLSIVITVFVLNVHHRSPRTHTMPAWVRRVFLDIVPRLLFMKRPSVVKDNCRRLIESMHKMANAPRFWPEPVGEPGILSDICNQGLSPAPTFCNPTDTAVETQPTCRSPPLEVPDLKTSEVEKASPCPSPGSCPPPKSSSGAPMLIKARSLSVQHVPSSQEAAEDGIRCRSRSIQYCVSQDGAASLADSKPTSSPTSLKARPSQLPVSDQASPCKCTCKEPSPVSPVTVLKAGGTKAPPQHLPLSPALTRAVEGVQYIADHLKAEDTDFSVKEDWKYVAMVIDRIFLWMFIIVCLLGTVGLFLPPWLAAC

`COc1cccc(-c2cc(C3CC4CCC3N4)cnc2F)c1` (racemic) [CAS_45266054] and `Nc1cccc(-c2cc(C3CC4CCC3N4)cnc2F)c1` (racemic) [CAS_45263775] are within 1.5-fold of each other in Ki: 120 pM for the first, 100 pM for the second.

Going from `Fc1ncc(C2CC3CCC2N3)cc1-c1ccccc1` (centres undefined) [NSC_45263762] to `c1cncc(C2CC3CCC2N3)c1` (centres undefined) [2-(pyridin-3-yl)-7-aza-bicyclo[2.2.1]heptane], the Ki falls from 240 pM to 20 pM (12-fold).
